Patent US10448635B2, “Modulation of plant biology” (FBSCIENCES HOLDINGS, INC., priority 2012, dated 2019)

Key:
Format in all cases: in vivo
[1] = test system: tomato plants (Lycopersicon es.); assay: Experiment Fe-4: foliar CPPA, Fe (FeSO4) or CPPA and Fe on tomato plants; settings: for Leaf # / Vigor / Plt. Ht. / Plt. Wt. / Root Wt. / Shoot Wt.: tomato, foliar
From the text: Experiment Fe-4: The purpose of this experiment was to determine if the addition of low levels of iron to a CPPA sample containing lower than typical amounts of iron (e.g., Fe/TOC=0.135) would increase the biological response of plants. Nominal Fe/TOC ratios for CPPA range from 0.10 to 0.28 but the optimum ratio for “as-is” samples of CPPA, as determined in the previous experiments, is between 0.2 and 0.25. Thus, for this experiment, non-agrochemically effective amounts of iron were combined with CPPA samples. Tomato plants (Lycopersicon es.) were produced from seed and transplanted into 3 inch by 3 inch pots. There were 16 treatments plus an untreated check with 20 replicates per treatment arranged in a Randomized Complete Block design. Pots were treated with water (UTC), or CPPA only (3 different rates), Fe only (3 different rates), or CPPA and Fe at each of the rates. The CPPA rates corresponded to 260, 520, and 1040 mg organic carbon (TOC) per hectare and the Fe rates corresponded to 130, 260, and 520 mg Fe per hectare. All pots were treated by foliar application immediately after transplanting. Ten days after the application, ten of the plants were harvested and assessed for vigor, leaf number, plant height, plant weight, root weight, and shoot weight. […] Additional application rates of CPPA and Fe were evaluated with similar synergistic results observed for the combination of CPPA with amounts of iron. Twenty days after transplanting, the remaining ten plants in each treatment were assessed.

plants and/or seeds = assay: Summary observations: CPPA treated with cation exchange resin, Fe alone and Fe added back; settings: seed treatment
Method: The plant biological response was generally observed to be better when a stoichiometric amount of Fe was added back (relative to the amount of CPPA or its TOC value) rather than an excess amount. […] These observations support the premise that the combination of CPPA and Fe are synergistic in their interaction and biological effect on plants and/or seeds.

[2] = test system: tomato plants (Lycopersicon es.); assay: Experiment Salt-1: CPPA/NaCl composition, foliar application; settings: NaCl 2600 mg/ha
Method: Experiment Salt-1: […] There were a total of 5 treatments plus an untreated check, each with 10 replicates per treatment arranged in a randomized block design. […] Each treatment comprised samples treated with CPPA alone, salt alone, or CPPA plus salt. Two rates of CPPA were used; the first was equivalent to 520 mg of TOC per hectare and a second equivalent to 1040 mg of TOC per hectare. Salt was applied at a rate equivalent to 2.6 g of salt per hectare. All treatments were diluted with water to provide a final spray volume equivalent to 208 lit per hectare, made with a spray bottle, with just enough spray solution to wet the leaf surface of each plant. Ten days after treatment the plants were assessed for vigor, leaf number, plant height, plant weight, root weight, shoot weight, and leaf conductance using a SPAD meter and are summarized in Table 8 and depicted in FIGS. 10-16.

[3] = 0 mg TOC/ha + 130 mg Fe/ha, 20 days after application
[4] = 0 mg TOC/ha + 520 mg Fe/ha, 10 days after application
[5] = 0 mg TOC/ha + 520 mg Fe/ha, 20 days after application
[6] = foliar at transplanting, 10 days after treatment

For `O=S(=O)([O-])[O-].[Fe+2]` [Fe, FeSO4], the “biological effect on plant, root and shoot weights versus UTC” value ([1]; Fe alone 520 mg Fe/ha, 20 days) was “apparent slightly negative biological effect”, the “Leaf #” value [1, 3] was 6.3 ab and the Vigor [1, 3] was 2.1 c. For the same compound, the “Leaf #” value [1, 4] was 6.6 ab, the “Plt. Ht.” value [1, 4] was 4.2 b and the “Plt. Wt.” value [1, 4] was 4.9 b. The “Root Wt.” value [1, 4] was 1.4 bc, the “Shoot Wt.” value [1, 4] was 3.6 b and the Vigor [1, 4] was 3.8 b. The “Leaf #” value [1, 5] was 5.1 b, the “Plt. Ht.” value [1, 5] was 6.3 b and the “Plt. Wt.” value [1, 5] was 4.5 b. For the same compound, the “Root Wt.” value [1, 5] was 1.6 bc, the “Shoot Wt.” value [1, 5] was 2.9 cd and the Vigor [1, 5] was 2.5 c. The root development (plants and/or seeds) was “negative effect” and the shoot development (plants and/or seeds) was “negative effect”.
In the case of `[Cl-].[Na+]` [NaCl], the “Leaf #” value [2, 6] is reported as 5.3 e, the “Plt. Ht.” value [2, 6] is reported as 3.5 b and the “Plt. Wt.” value [2, 6] is reported as 2.7 c. For the same compound, the “Root Wt.” value [2, 6] was 0.8 jc, the “Shoot Wt.” value [2, 6] was 2.0 c and the Vigor [2, 6] was 2.4 b. For the same compound, the “phytotoxicity of salt treatment alone” value ([2]; foliar, 10 days) was “significant amount of phytotoxicity” and the SPAD ([2]; leaf conductance using a SPAD meter, foliar at transplanting, 10 days after treatment) was 24.2 b.
